Measurements from patent publication US11564923B2, “Compounds and pharmaceutical compositions thereof for the treatment of inflammatory disorders” (Galapagos NV, priority 2017, dated 2023).

Columns and labels:
[1] = system: IL-12 activation of STAT4 in NK-92 cells; test: IL-12 activation of STAT4 in NK-92 cells using MSD as readout; format: cell-based; conditions: Homo sapiens, NK92; NK-92 cells, rhIL-12 25 ng/mL, MSD readout; read-out: IL12 pSTAT4 IC50
Method: IL-2 is added freshly to the medium with each medium refreshment step. Cells are cultured in a humidified incubator at 37° C. 5% CO2.
NK-92 cells are pre-incubated with test compounds or vehicle for 30 min at 37° C. 5% CO2. […] NK-92 cells are triggered with rhIL-12 for 45 min at 37° C. 5% CO2.
After 45 min of cytokine stimulation the cells are lysed by addition of 50 μL ice-cold lysis buffer (supplemented with the MSD kit). Plates are frozen at −80° C. for minimal 1 hour to lyse the cells completely. After thawing the levels of phospho-STAT4 are quantified using the Phospho-STAT4 (Tyr693) kit (MSD, Catalogue number K150PAD-2) according to the manufacturer's instructions. Electroluminescent signal is measured on the MSD reader.
The percentage inhibition is calculated as: […]
RLU (trigger/veh): Relative lumescent signal determined in presence of vehicle and trigger
RLU (test compound): Relative luminescent signal determined in presence of test compounds)
PIN values are plotted for compounds tested in dose-response and IC50 values are derived using LIMS Software applying non-linear regression (sigmoidal) curve fitting. The data are expressed as the average IC50 from different experiments.

[2] = target: Recombinant human JAK3 catalytic domain (amino acids 781-1124) (Homo sapiens, UniProt P52333); test: JAK3 inhibition assay; format: biochemical
Recombinant human JAK3 catalytic domain (amino acids 781-1124), sequence (P52333 781-1124): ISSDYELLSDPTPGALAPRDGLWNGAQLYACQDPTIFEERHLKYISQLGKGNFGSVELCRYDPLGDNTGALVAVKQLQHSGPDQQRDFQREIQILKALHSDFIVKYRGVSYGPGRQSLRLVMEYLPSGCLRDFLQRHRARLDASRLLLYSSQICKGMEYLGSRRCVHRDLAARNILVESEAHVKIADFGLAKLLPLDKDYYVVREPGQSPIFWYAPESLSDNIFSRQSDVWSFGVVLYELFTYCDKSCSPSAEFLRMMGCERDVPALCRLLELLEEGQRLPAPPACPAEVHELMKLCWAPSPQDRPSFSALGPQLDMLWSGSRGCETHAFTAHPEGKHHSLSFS
In short: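 Radiometric kinase reaction run 45 min at 30° C., stopped with phosphoric acid; activity as vehicle cpm minus 10 μM staurosporine cpm.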

[3] = target: T1, Recombinant human JAK1 (catalytic domain, amino acids 866-1154) (Homo sapiens, UniProt P23458); test: JAK1 inhibition assay; format: biochemical; conditions: read-out: JAK1 potency IC50
T1 construct: catalytic domain, amino acids 866-1154
T1 sequence (P23458 866-1154): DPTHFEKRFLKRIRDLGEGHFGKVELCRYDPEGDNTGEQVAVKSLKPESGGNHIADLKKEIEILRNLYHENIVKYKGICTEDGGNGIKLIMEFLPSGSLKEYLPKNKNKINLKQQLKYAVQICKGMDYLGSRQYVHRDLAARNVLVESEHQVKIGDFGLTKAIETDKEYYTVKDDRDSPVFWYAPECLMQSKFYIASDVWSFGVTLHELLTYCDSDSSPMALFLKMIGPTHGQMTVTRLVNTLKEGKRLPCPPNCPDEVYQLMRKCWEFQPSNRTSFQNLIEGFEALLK

[4] = target: T2, Recombinant human TYK2 catalytic domain (amino acids 871-1187) (Homo sapiens, UniProt P29597); test: TYK2 ADPglo kinase assay; format: biochemical; also: 12 µM ATP
T2 construct: catalytic domain (amino acids 871-1187)
T2 sequence (P29597 871-1187): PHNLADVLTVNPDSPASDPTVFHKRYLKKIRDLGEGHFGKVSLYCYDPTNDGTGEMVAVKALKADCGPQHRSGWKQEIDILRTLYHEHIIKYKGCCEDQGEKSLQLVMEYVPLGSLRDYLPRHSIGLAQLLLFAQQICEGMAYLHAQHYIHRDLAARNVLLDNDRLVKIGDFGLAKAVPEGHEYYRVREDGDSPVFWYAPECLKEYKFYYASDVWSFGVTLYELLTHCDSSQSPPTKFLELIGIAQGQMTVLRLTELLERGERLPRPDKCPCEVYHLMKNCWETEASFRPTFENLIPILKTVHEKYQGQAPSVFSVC
Method: After 120 min at room temperature, reactions were stopped and the remaining ATP is depleted by adding 5 μL/well of ADP Glo Reagent (Promega, catalog number V912B). After 40 min at room temperature, 10 μl Kinase Detection Reagent (Kinase Detection Substrate (Promega, catalog number V914B) dissolved in Kinase Detection Buffer (Promega, catalog number V913B)) is added to convert ADP to ATP and to measure this newly synthesized ATP in a luciferase/luciferin reaction. Readout is performed after 30 min incubation at room temperature using the Envision. Kinase activity is calculated by subtracting the relative light units (RLU) obtained in the presence of a positive control inhibitor (10 μM staurosporine) from the RLU obtained in the presence of vehicle. The ability of a test compound to inhibit this activity (or percentage inhibition) is determined as:
RLU test compound=RLU determined for sample with test compound present
RLU control=RLU determined for sample with positive control inhibitor
RLU vehicle=RLU determined in the presence of vehicle
Dose dilution series were prepared for the compounds enabling the testing of dose-response effects in the TYK2 assay and the calculation of the IC50 for the compound. Each compound is routinely tested at concentration of 20 μM followed by a 1/5 serial dilution, 10 points in a final concentration of 1% DMSO. […] The data are expressed as the average IC50 from the assays.

SMILES | IC50 [1] [µM] | IC50 [2] [µM] | IC50 [3] [µM] | IC50 [4] [µM]
Cc1cc(C#N)ncc1Nc1cc(Nc2ccc(C(=O)N(C)C)cn2)c2ncn(C)c2n1 [Compound 67, 6-[[5-[(6-cyano-4-methyl-3-pyridyl)amino]-3-methyl-imidazo[4,5-b]pyridin-7-yl]amino]-N,N-dimethyl-pyridine-3-carboxamide] | 0.233 | 0.258 | 0.0514 | 
Cn1cnc2c(Nc3ccc(S(C)(=O)=O)cn3)cc(NC(C3CC3)C(F)(F)F)nc21 (centres unmarked) [Compound 92, N5-(1-cyclopropyl-2,2,2-trifluoro-ethyl)-3-methyl-N7-(5-methylsulfonyl-2-pyridyl)imidazo[4,5-b]pyridine-5,7-diamine] | 0.282 | 0.013 | 0.0096 | 0.00058
Cc1cc(C(F)(F)F)ncc1Oc1cc(Nc2cc(N)ncn2)c2ncn(C)c2n1 [Compound 1, N-[3-Methyl-5-(4-methyl-6-trifluoromethyl-pyridin-3-yloxy)-3H-imidazo[4,5-b]pyridin-7-yl]-pyrimidine-4,6-diamine] | 0.539 | 1.49 | 0.153 | 
Cc1cc(C#N)ncc1Oc1cc(Nc2ccc(S(=O)(=O)C3CC3)cc2)c2ncn(C)c2n1 [Compound 69, 5-[7-(4-cyclopropylsulfonylanilino)-3-methyl-imidazo[4,5-b]pyridin-5-yl]oxy-4-methyl-pyridine-2-carbonitrile] | 0.204 | 1.31 | 0.0613 | 
CC(C)C(Nc1cc(Nc2cc(N)ncn2)c2ncn(C)c2n1)C(F)(F)F (centres unmarked) [Compound 93, N7-(6-aminopyrimidin-4-yl)-3-methyl-N5-[2-methyl-1-(trifluoromethyl)propyl)imidazo[4,5-b]pyridine-5,7-diamine] | 0.201 | 0.0774 | 0.0571 | 
Cc1cc(C#N)ncc1N(c1cc(Nc2cc(N)ncn2)c2ncn(C)c2n1)C1CC1 [Compound 88, 5-[[7-[(6-aminopyrimidin-4-yl)amino]-3-methyl-imidazo[4,5-b]pyridin-5-yl]-cyclopropyl-amino]-4-methyl-pyridine-2-carbonitrile] | 0.0901 | 0.189 | 0.0053 | 0.00011
Cc1cc(C#N)ncc1Oc1cc(Nc2ccc(S(=O)(=O)C(F)F)cc2)c2ncn(C)c2n1 [Compound 68, 5-[7-[4-(difluoromethylsulfonyl)anilino]-3-methyl-imidazo[4,5-b]pyridin-5-yl]oxy-4-methyl-pyridine-2-carbonitrile] | 1.44 | 2.76 | 0.113 | 
